Measured values taken from PubChem BioAssay (NCI).
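Assay format: 96-well plates, 48-hour exposure. The concentration for full growth arrest is given as TGI.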

Experiments:
Assay in all cases: NCI anticancer screen, dose series, 48 h
LOX IMVI melanoma = system: LOX IMVI melanoma
ACHN renal = system: ACHN renal
SNB-75 CNS = system: SNB-75 CNS
NCI-H226 lung = system: NCI-H226 lung
KM12 colon = system: KM12 colon
HOP-62 NSCLC = system: HOP-62 NSCLC
HT29 colon = system: HT29 colon
NCI-H23 lung = system: NCI-H23 lung
NCI-H522 lung = system: NCI-H522 lung
K-562 leukemia = system: K-562 leukemia
HCT-15 colon = system: HCT-15 colon
SNB-19 CNS = system: SNB-19 CNS
NCI-H460 lung = system: NCI-H460 lung
NCI/ADR-RES ovarian = system: NCI/ADR-RES ovarian
BT-549 breast = system: BT-549 breast
OVCAR-3 ovarian = system: OVCAR-3 ovarian
DU-145 prostate = system: DU-145 prostate
HOP-92 NSCLC = system: HOP-92 NSCLC
SW-620 colon = system: SW-620 colon
UO-31 renal = system: UO-31 renal
HCT-116 colon = system: HCT-116 colon
SR leukemia = system: SR leukemia
SF-539 CNS = system: SF-539 CNS
MALME-3M melanoma = system: MALME-3M melanoma
MDA-N = system: MDA-N
M14 melanoma = system: M14 melanoma
OVCAR-8 ovarian = system: OVCAR-8 ovarian
PC-3 prostate = system: PC-3 prostate
TK-10 renal = system: TK-10 renal
RXF 393 renal = system: RXF 393 renal
OVCAR-5 ovarian = system: OVCAR-5 ovarian
CCRF-CEM leukemia = system: CCRF-CEM leukemia
MDA-MB-231 breast = system: MDA-MB-231 breast
IGROV1 ovarian = system: IGROV1 ovarian
HL-60(TB) leukemia = system: HL-60(TB) leukemia
EKVX NSCLC = system: EKVX NSCLC
U251 CNS = system: U251 CNS
SK-OV-3 ovarian = system: SK-OV-3 ovarian
UACC-62 melanoma = system: UACC-62 melanoma
SK-MEL-28 melanoma = system: SK-MEL-28 melanoma
A549 NSCLC = system: A549 NSCLC
SK-MEL-2 melanoma = system: SK-MEL-2 melanoma
SF-295 CNS = system: SF-295 CNS
SF-268 CNS = system: SF-268 CNS
COLO 205 colon = system: COLO 205 colon
SN12C renal = system: SN12C renal
HCC-2998 colon = system: HCC-2998 colon
MDA-MB-435 = system: MDA-MB-435
RPMI-8226 leukemia = system: RPMI-8226 leukemia
T-47D breast = system: T-47D breast
SK-MEL-5 melanoma = system: SK-MEL-5 melanoma
A498 renal = system: A498 renal
CAKI-1 renal = system: CAKI-1 renal
HS 578T breast = system: HS 578T breast
MOLT-4 leukemia = system: MOLT-4 leukemia
UACC-257 melanoma = system: UACC-257 melanoma
OVCAR-4 ovarian = system: OVCAR-4 ovarian
786-0 renal = system: 786-0 renal
MCF7 breast = system: MCF7 breast

With `C=C(Cl)C(=CCl)CCC(Br)C(C)(C)Cl` (mixture of isomers) the TGI (LOX IMVI melanoma) was over 10 µM, the TGI (ACHN renal) was over 10 µM and the TGI (SNB-75 CNS) was over 10 µM. It also gave a TGI (NCI-H226 lung) of over 10 µM, a TGI (KM12 colon) of over 10 µM and a TGI (HOP-62 NSCLC) of over 10 µM. For the same molecule, the TGI (HT29 colon) was over 10 µM, the TGI (NCI-H23 lung) was over 10 µM and the TGI (NCI-H522 lung) was over 10 µM. For the same molecule, the TGI (K-562 leukemia) was over 10 µM, the TGI (HCT-15 colon) was over 10 µM and the TGI (SNB-19 CNS) was over 10 µM. It also gave a TGI (NCI-H460 lung) of over 10 µM, a TGI (NCI/ADR-RES ovarian) of over 10 µM and a TGI (BT-549 breast) of over 10 µM. The TGI (OVCAR-3 ovarian) was over 10 µM, the TGI (DU-145 prostate) was over 10 µM and the TGI (HOP-92 NSCLC) was over 10 µM. For the same molecule, the TGI (SW-620 colon) was over 10 µM, the TGI (UO-31 renal) was over 10 µM and the TGI (HCT-116 colon) was over 10 µM. It also gave a TGI (SR leukemia) of over 10 µM, a TGI (SF-539 CNS) of over 10 µM and a TGI (MALME-3M melanoma) of over 10 µM. For the same molecule, the TGI (MDA-N) was over 10 µM, the TGI (M14 melanoma) was over 10 µM and the TGI (OVCAR-8 ovarian) was over 10 µM. It also gave a TGI (PC-3 prostate) of over 10 µM, a TGI (TK-10 renal) of over 10 µM and a TGI (RXF 393 renal) of over 10 µM. The TGI (OVCAR-5 ovarian) was over 10 µM, the TGI (CCRF-CEM leukemia) was 6.89 µM and the TGI (MDA-MB-231 breast) was over 10 µM. It also gave a TGI (IGROV1 ovarian) of over 10 µM, a TGI (HL-60(TB) leukemia) of over 10 µM and a TGI (EKVX NSCLC) of over 10 µM. It also gave a TGI (U251 CNS) of over 10 µM, a TGI (SK-OV-3 ovarian) of over 10 µM and a TGI (UACC-62 melanoma) of over 10 µM. It also gave a TGI (SK-MEL-28 melanoma) of over 10 µM, a TGI (A549 NSCLC) of over 10 µM and a TGI (SK-MEL-2 melanoma) of over 10 µM. For the same molecule, the TGI (SF-295 CNS) was over 10 µM, the TGI (SF-268 CNS) was over 10 µM and the TGI (COLO 205 colon) was over 10 µM. The TGI (SN12C renal) was over 10 µM, the TGI (HCC-2998 colon) was over 10 µM and the TGI (MDA-MB-435) was over 10 µM. It also gave a TGI (RPMI-8226 leukemia) of over 10 µM, a TGI (T-47D breast) of over 10 µM and a TGI (SK-MEL-5 melanoma) of over 10 µM. For the same molecule, the TGI (A498 renal) was over 10 µM, the TGI (CAKI-1 renal) was over 10 µM and the TGI (HS 578T breast) was over 10 µM. For the same molecule, the TGI (MOLT-4 leukemia) was over 10 µM, the TGI (UACC-257 melanoma) was over 10 µM and the TGI (OVCAR-4 ovarian) was over 10 µM. The TGI (786-0 renal) was over 10 µM and the TGI (MCF7 breast) was over 10 µM.
